In patent EP0383759B1 (Discovery Therapeutics, Inc., priority 1987, dated 1988):
Blank lines part the entries; values can stand above or below the compound they belong to.

Key:
fat cell A1 receptor = target: T1, fat cell A1 receptor (Rattus norvegicus, UniProt P25099); experiment: antagonism of R-PIA-induced inhibition of isoproterenol-stimulated adenylate cyclase activity in fat cell membranes; format: biochemical; details: result in words
T1 construct: from tissue; host or cells: rat fat cell membranes
T1 sequence (P25099 1-326): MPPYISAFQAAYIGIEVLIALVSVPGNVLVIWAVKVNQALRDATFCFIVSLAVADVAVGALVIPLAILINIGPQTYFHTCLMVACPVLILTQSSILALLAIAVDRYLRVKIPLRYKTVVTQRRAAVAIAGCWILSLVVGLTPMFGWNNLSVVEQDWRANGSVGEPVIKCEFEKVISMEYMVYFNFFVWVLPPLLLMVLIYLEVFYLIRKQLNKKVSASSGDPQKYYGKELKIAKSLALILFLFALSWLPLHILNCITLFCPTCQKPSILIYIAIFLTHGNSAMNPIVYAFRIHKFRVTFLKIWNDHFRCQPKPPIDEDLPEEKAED
Procedure: (§1) Human platelet, rat pheochromocytoma (PC12) cell, rat fat cell and rat cerebral cortex membranes were prepared as described (4,5,6). Adenylate cyclase activity and binding of [^3H]PIA to cerebral cortex membranes were determined essentially as described (4,5,6).
(§2) KB values for the compounds were determined as described (4). […] EC50 and IC50 values for the agonists were obtained from the concentration-response curves by linear regression after logit-log transformation. KB values of the antagonists were calculated using the Schild equation KB = C/(CR-1), where C denotes the concentration of the competitor and CR the ratio of the EC50 and IC50 values in the presence and absence, respectively, of the competitor. IC50 of the compounds for inhibition of [^3H]PIA binding to cerebral cortex membranes were transformed into Ki values as described (6).

[1] = target: T2, A2 receptors of platelets (Homo sapiens, UniProt P29274); experiment: antagonism of NECA-induced stimulation of adenylate cyclase activity of human platelet membranes; format: biochemical; details: for antagonist potency at the platelet A2 receptor: NECA-induced stimulation of adenylate cyclase, human platelet membranes, result in words
T2 construct: NECA-induced stimulation of adenylate cyclase activity of human platelet membranes; from tissue; host or cells: human platelet membranes
Procedure: as §1, §2
In these cells, A2 receptor-mediated stimulation of adenylate cyclase results in an inhibition of aggregation (5,7).

A1 receptors = target: T3, A1 receptors (Rattus norvegicus, UniProt P25099); experiment: inhibition of [^3H]PIA binding to rat cerebral cortex membranes; details: result in words
T3 construct: from tissue; host or cells: rat cerebral cortex membranes
T3 sequence (P25099 1-326): T1 sequence (P25099 1-326)
Procedure: as §1, §2

[2] = target: T4, A2 receptors of rat pheochromocytoma (PC12) cells (Rattus norvegicus, UniProt P30543); experiment: antagonism of NECA-induced stimulation of adenylate cyclase activity of PC12 cell membranes; format: biochemical; details: NECA-stimulated adenylate cyclase, result in words
T4 construct: NECA-induced stimulation of adenylate cyclase activity of the PC12 cells membranes; endogenous in cells; host or cells: rat pheochromocytoma PC12 cell membranes
Procedure: as §1, §2

A1 or A2 receptors [3] = target: T5, A1 or A2 receptors (Rattus norvegicus, UniProt P25099); experiment: comparison of activity across the A1 and A2 adenosine receptor systems (discussion); format: biochemical; details: test system not specified
T5 sequence (P25099 1-326): T1 sequence (P25099 1-326)
Procedure: as §1, §2

A1 adenosine receptor = target: T6, A1 adenosine receptor (Cavia porcellus, UniProt P47745); experiment: antagonism of adenosine agonists' reduction in force of contraction of guinea pig atrium; format: cell-based; details: for antagonism at adenosine receptors in the atria / basal force of contraction in the atria: guinea pig atria; for antagonism at adenosine receptors in the atria: result in words
T6 construct: The left atria from male guinea pigs were isolated; from tissue; host or cells: isolated guinea pig left atrium
T6 sequence (P47745 1-326): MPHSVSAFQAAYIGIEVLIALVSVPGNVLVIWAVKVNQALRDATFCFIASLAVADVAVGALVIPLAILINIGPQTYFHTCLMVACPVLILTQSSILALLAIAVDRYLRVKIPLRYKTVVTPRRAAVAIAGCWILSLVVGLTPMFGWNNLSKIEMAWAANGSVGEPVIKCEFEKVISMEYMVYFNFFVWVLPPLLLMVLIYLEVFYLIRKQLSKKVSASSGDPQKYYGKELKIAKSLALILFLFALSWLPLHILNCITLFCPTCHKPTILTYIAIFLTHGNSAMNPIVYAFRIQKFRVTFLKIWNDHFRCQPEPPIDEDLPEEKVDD
Procedure: The left atria from male guinea pigs were isolated, suspended between two punctate electrodes, and placed in a 20 ml organ bath that contained Krebs-Hensileit solution that was continuously gassed with 95% O2 + 5% CO2 and maintained at 31°C. The resting tension was one gram. Theatria were stimulated electrically at 1 hz, 1 ms duration pulses at supramaximal voltage. The force of contraction was recorded isometrically.
(§3) The ability of the compounds to antagonize the effects of agonists was analyzed using modified Schild plots.

A2-adenosine receptors = experiment: antagonism of adenosine agonists' decrease in contractile tone of guinea pig taenia caecum; format: cell-based; details: result in words
Procedure: The tissues were suspended in a 20 ml organ bath containing de Jalon's solution that was gassed with 95% O2 + 5% CO2 and maintained at 31°C. The resting tension was 1.5 g. The contractile response was measured isotonically.
as §3

[4] = tested on: heart rate and blood pressure; experiment: in vivo heart rate and blood pressure in anesthetized rats after adenosine or NECA; details: urethan-anesthetized rats
From the text: Drug injections were made intravenously through a jugular cannula.

A1 or A2 receptors [5] = experiment: comparison of activity across the A1 and A2 adenosine receptor systems (discussion); format: biochemical; details: result in words
Procedure: as §1, §2

[6] = affinity constants, guinea pig left atria, modified Schild plots

T2 sequence (P29274 whole entry): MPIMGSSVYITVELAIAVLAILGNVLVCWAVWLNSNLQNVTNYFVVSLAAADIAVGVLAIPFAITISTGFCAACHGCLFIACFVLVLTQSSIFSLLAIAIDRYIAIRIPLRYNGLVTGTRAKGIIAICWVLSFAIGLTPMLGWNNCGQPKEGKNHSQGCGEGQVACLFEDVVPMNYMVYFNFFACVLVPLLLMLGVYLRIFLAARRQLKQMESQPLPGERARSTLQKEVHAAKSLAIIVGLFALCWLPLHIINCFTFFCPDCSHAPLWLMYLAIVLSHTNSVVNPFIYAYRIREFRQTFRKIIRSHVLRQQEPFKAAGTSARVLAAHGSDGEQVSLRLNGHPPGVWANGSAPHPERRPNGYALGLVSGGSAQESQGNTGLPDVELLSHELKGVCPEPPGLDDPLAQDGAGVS
T4 sequence (P30543 whole entry): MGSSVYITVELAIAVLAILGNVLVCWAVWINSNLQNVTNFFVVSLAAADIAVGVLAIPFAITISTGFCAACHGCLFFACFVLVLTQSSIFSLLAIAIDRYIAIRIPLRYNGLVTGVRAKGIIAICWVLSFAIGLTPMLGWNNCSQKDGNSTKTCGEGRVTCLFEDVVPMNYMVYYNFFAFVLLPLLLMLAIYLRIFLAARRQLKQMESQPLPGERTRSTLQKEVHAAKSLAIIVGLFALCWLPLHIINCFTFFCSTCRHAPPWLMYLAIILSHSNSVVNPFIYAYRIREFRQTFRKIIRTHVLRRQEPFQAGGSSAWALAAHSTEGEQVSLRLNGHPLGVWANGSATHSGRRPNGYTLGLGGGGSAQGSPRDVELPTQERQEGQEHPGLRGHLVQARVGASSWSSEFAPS

antagonistic potency at the fat cell A1 receptor (fat cell A1 receptor): more potent than 9-methyladenine | antagonist potency at the platelet A2 receptor [1]: increases potency
Compound: Cn1cnc2c(Nc3ccccc3F)ncnc21 [Example 10, N^6-2-Fluorophenyl-9-MA]

Compound: Cn1cnc2c(N)ncnc21 [Example 2, 9-methyladenine, reference compound]
Ki-values for inhibition of [^3H]PIA binding (A1 receptors): equally potent at A1 receptors of fat cells and cerebral cortex | antagonistic potency at the fat cell A1 receptor (fat cell A1 receptor): antagonizes the effect of R-PIA | antagonist potency at the platelet A2 receptor [1]: more potent than the adenine itself | antagonist potency at the A2 receptor of PC12 cells [2]: equally potent at A2 receptors of human platelets and rat PC12 cells

antagonistic potency at the fat cell A1 receptor (fat cell A1 receptor): more potent than the parent compound | antagonist potency at the platelet A2 receptor [1]: more potent than 9-methyladenine itself | Kb (A1 adenosine receptor; [6]): 676 nM | antagonism at adenosine receptors in the atria (A1 adenosine receptor): competitive antagonists | antagonism of the effects of adenosine agonists in relaxing the taenia caecum (A2-adenosine receptors): did not competitively antagonize
Compound: Cn1cnc2c(NC3CCCC3)ncnc21 [Example 4, N^6-cyclopentyl-9-methyladenine]
Ki-values for inhibition of [^3H]PIA binding (A1 receptors): more potent than the N^6-methylcyclopentyl analog | activity at A1 receptors (A1 or A2 receptors [3]): the most potent of N^6-substituted 9-methyladenines at A1 receptors | antagonist potency at the A2 receptor of PC12 cells [2]: more potent at the platelet A2 receptor than at the PC12 A2 receptor

Compound: CNc1ncnc2c1ncn2C [Example 7, N^6-Methyl-9-MA]
antagonistic potency at the fat cell A1 receptor (fat cell A1 receptor): less potent than 9-methyladenine | antagonist potency at the platelet A2 receptor [1]: much less potent than 9-methyladenine

Compound: Cn1cnc2c(N[C@@H]3C[C@@H]4CC[C@H]3C4)ncnc21 (relative stereo) [N^6-(endonorbornyl)-9-methyladenine]
effects of subsequently administered adenosine on blood pressure, heart rate and P-R interval ([4]; intravenous): attenuated | heart block caused by adenosine at high doses ([4]; intravenous): substantially reduced

activity at A1 receptors (A1 or A2 receptors [3]): reduces activity at A1 receptors | antagonist potency at the A2 receptor of PC12 cells [2]: reduces potency
Compound: Cn1cnc2c(NC3(C)CCCC3)ncnc21 [Example 5, N^6-1-methylcyclopentyl-9-methyladenine]
antagonistic potency at the fat cell A1 receptor (fat cell A1 receptor): less potent than the N^6-cyclopentyl analog | antagonist potency at the platelet A2 receptor [1]: less potent than the parent cyclopentyl analog

antagonistic potency at the fat cell A1 receptor (fat cell A1 receptor): more potent than the parent compound | antagonist potency at the platelet A2 receptor [1]: more potent than 9-methyladenine itself
Compound: Cn1cnc2c(NC3CCC3)ncnc21 [Example 3, N^6-Cyclobutyl-9-MA]
activity at A1 receptors (A1 or A2 receptors [3]): the most potent of N^6-substituted 9-methyladenines at A1 receptors

pKB (A1 adenosine receptor; [6]): 5.36 ± 0.1 | basal force of contraction in the atria (A1 adenosine receptor): produced increases | antagonism at adenosine receptors in the atria (A1 adenosine receptor): competitive antagonists
Compound: N^6-4-(-2-thienyl) -3-butyl) -9-MA [Example 23]

Compound: Nc1ncnc2nc[nH]c12 [Example 1, Adenine, reference compound]
Ki-values for inhibition of [^3H]PIA binding (A1 receptors): low potency | antagonistic potency at the fat cell A1 receptor (fat cell A1 receptor): does not affect | antagonist potency at the platelet A2 receptor [1]: very weak antagonist | basal adenylate cyclase activity ([1]; human platelets, data not shown): does not affect | antagonist potency at the A2 receptor of PC12 cells [2]: very weak antagonist

Ki-values for inhibition of [^3H]PIA binding (A1 receptors): very weak antagonists | antagonistic potency at the fat cell A1 receptor (fat cell A1 receptor): much less potent | antagonist potency at the platelet A2 receptor [1]: less potent than 9-methyladenine
Compound: Cn1cnc2c(NCCc3ccccc3)ncnc21 [Example 12, N^6-2-Phenethyl-9-MA]

antagonistic potency at the fat cell A1 receptor (fat cell A1 receptor): more potent than the parent compound
Compound: C[C@@H](Cc1ccccc1)Nc1ncnc2c1ncn2C [Example 17, N^6-S-1-Phenyl-2-propyl-9-MA]

Ki-values for inhibition of [^3H]PIA binding (A1 receptors): very weak antagonists | antagonist potency at the platelet A2 receptor [1]: as potent as 9-methyladenine
Compound: COc1cc(CCNc2ncnc3c2ncn3C)cc(OC)c1OC [Example 13, N^6-2-(3,4,5-trimethoxyphenylethyl)-9-methyladenine]

antagonistic potency at the fat cell A1 receptor (fat cell A1 receptor): more potent than the parent compound | antagonist potency at the platelet A2 receptor [1]: more potent than 9-methyladenine itself
Compound: Cn1cnc2c(NC3CCCCC3)ncnc21 [Example 6, N^6-Cyclohexyl-9-MA]
activity at A1 receptors (A1 or A2 receptors [3]): the most potent of N^6-substituted 9-methyladenines at A1 receptors

antagonist potency at the platelet A2 receptor [1]: somewhat more potent
Compound: Cn1cnc2c(NCCc3ccsc3)ncnc21 [Example 15, N^6-2-(3-thienylethyl)-9-methyladenine]

antagonist potency at the platelet A2 receptor [1]: less potent than 9-methyladenine
Compound: Cn1cnc2c(NCCc3cccnc3)ncnc21 [Example 14, N^6-2-(3-pyridylethyl)-9-methyladenine]

antagonistic potency at the fat cell A1 receptor (fat cell A1 receptor): more potent than 9-methyladenine | antagonist potency at the platelet A2 receptor [1]: equipotent to 9-methyladenine
Compound: Cn1cnc2c(Nc3ccccc3)ncnc21 [Example 9, N^6-Phenyl-9-MA]
antagonist potency at the A2 receptor of PC12 cells [2]: more potent at the platelet A2 receptor than at the PC12 A2 receptor

Compound: Cn1c(=O)c2[nH]c(-c3ccccc3)nc2n(C)c1=O [Example 8-PT, 8-phenyltheophylline, reference compound]
antagonism of the effects of adenosine agonists in relaxing the taenia caecum (A2-adenosine receptors): did antagonize the effects of agonists at low concentrations

antagonistic potency at the fat cell A1 receptor (fat cell A1 receptor): more potent than the parent compound | antagonist potency at the platelet A2 receptor [1]: more potent | Kb (A1 adenosine receptor; [6]): 3980 nM | basal force of contraction in the atria (A1 adenosine receptor): produced increases | antagonism at adenosine receptors in the atria (A1 adenosine receptor): competitive antagonists | antagonism of the effects of adenosine agonists in relaxing the taenia caecum (A2-adenosine receptors): did not competitively antagonize
Compound: CCC(CC)Nc1ncnc2c1ncn2C [Example 8, N^6-3-pentyl-9-methyladenine]
antagonist potency at the A2 receptor of PC12 cells [2]: more potent at the platelet A2 receptor than at the PC12 A2 receptor

activity at A1 receptors (A1 or A2 receptors [3]): modest activity | antagonist potency at the platelet A2 receptor [1]: less potent than 9-methyladenine
Compound: Cn1cnc2c(NCc3ccccc3)ncnc21 [Example 11, N^6-benzyl-9-methyladenine]

Ki-values for inhibition of [^3H]PIA binding (A1 receptors): more potent than the S-isomer | antagonistic potency at the fat cell A1 receptor (fat cell A1 receptor): more potent than the parent compound | antagonist potency at the platelet A2 receptor [1]: more potent than the S-isomer
Compound: C[C@H](Cc1ccccc1)Nc1ncnc2c1ncn2C [Example 16, N^6-R-1-Phenyl-2-propyl-9-MA]

antagonism at adenosine receptors in the atria (A1 adenosine receptor): competitive antagonists | antagonism at adenosine receptors in the atria (A1 adenosine receptor; listed as Ex. 22): the most potent antagonist | antagonism of the effects of adenosine agonists in relaxing the taenia caecum (A2-adenosine receptors): did not competitively antagonize
Compound: Cn1cnc2c(N[C@H]3C[C@H]4CC[C@@H]3C4)ncnc21 (relative stereo) [Example 22, N^6-(endonorbornyl)-9-methyladenine]
NECA-induced decrease in blood pressure ([4]; prior administration): minimally affecting | effects of NECA on the heart ([4]; prior administration): attenuated

selectivity for A1 or A2 receptors (A1 or A2 receptors [5]): selectivity for A2 receptors
Compound: COc1cc(CCNc2ncnc3c2ncn3C)cc(OC)c1OC

antagonistic potency at the fat cell A1 receptor (fat cell A1 receptor): more potent than 9-methyladenine itself
Compound: Cn1cnc2c(NCCc3ccsc3)ncnc21 [N^6-2-(3-thienylethyl)-9-methyladenine]
